{"source": "patent US20260263550A1", "about": "“METHODS AND COMPOSITIONS FOR TREATING, PREVENTING, INHIBITING, AMELIORATING OR DELAYING THE ONSET OF OPHTHALMIC CONDITIONS” (Stealth BioTherapeutics Inc., priority 2021, published 2026)", "key": {"[1]": {"experiment": "Uptake in plasma and compartments of the eye in a rabbit model (subcutaneous or topical ocular dosing)", "assay_type": "in vivo, Dutch Belted Rabbits", "settings": "in vivo", "procedure": "3 mg/mL elamipretide or compound of Formula IIa in saline was dosed subcutaneously at 1.5 mg/kg. A 3 mg/mL elamipretide or compound of Formula IIa formulation was prepared by dissolving 81 mg elamipretide in a total volume of 27 mL of sterile saline and mixing well. • (ii) Groups 2 & 4: Topical Ocular Formulation for administration of elamipretide or compound of Formula IIa\nFor each preparation (i.e., elamipretide or compound of Formula IIa, sodium chloride (105 mg) was dissolved in 16 mL of water for injection with mixing. With mixing, 82.8 mg of sodium phosphate monobasic, monohydrate was then added. With mixing, 0.400 mL of a 5 mg/mL benzalkonium chloride solution in water (to be prepared by diluting 0.100 mL of a 50% benzalkonium chloride solution in water to 10 mL with water for injection) was then added. Two hundred (200) mg of elamipretide or compound of Formula IIa was then added with mixing and the formulation pH was adjusted to 5.8 (+/−0.1) with 1 M sodium hydroxide in water solution. The final volume of the formulation was then be brought to 20 mL using water for injection. Each formulation (elamipretide or compound of Formula IIa) was used for topical ocular administration at a dose of 50 μL/eye OU.\nA total of 48 male Dutch Belted Rabbits were used in the study. Each animal was approximately 2 kg.\nFor subcutaneous administration, rabbits were dosed via a single subcutaneous injection of 1.5 mg/kg and at the scruff of the neck between the shoulder blades using a syringe with an attached 27G×½ inch needle (or similar). The site of injection was checked to ensure no leakage of dose immediately following administration.\nFor topical administration, a calibrated Gilson positive displacement pipette was used to administer 50 μL of formulation onto the globe the eye while the lower eyelid was pulled away from the globe. Administration was twice daily (i.e., BID). Doses were administered to both eyes, every 8 to 12 hours for 11 total doses.\nTerminal blood samples (approximately 6 mL) were collected from two animals/group/timepoint via the central ear artery at approximately 0.5, 1, 2, 4, 8, and 24 hours postdose. Blood samples were collected into tubes containing K2EDTA as the anticoagulant and inverted several times to ensure adequate mixing of blood and anticoagulant and placed on ice. Within 30 min of collection, samples were centrifuged to harvest plasma and stored at −80° C. until analyzed.\nFollowing blood collection, designated animals were euthanized by barbiturate overdose. Following euthanasia, both eyes of each rabbit were harvested and dissected for collection of ocular tissue and fluid. Optic nerve and retina were collected from Group 1 and 3 animals, and aqueous humor, retina, conjunctiva, cornea, sclera, and optic nerve were collected from Group 2 and 4 animals. Following dissection, all fluids and tissues were placed in pre-tared tubes, weight collected, and then flash frozen on dry ice and placed in a freezer at −80° C. or lower until analyzed. Concentrations of test article in plasma in the ocular tissues (ng/g tissue) and fluids (ng/mL fluid) were determined utilizing a method previously developed by the CRO."}, "[2]": {"tested_on": "iPSC-derived RPE cells from AMD donors", "experiment": "Microarray analysis of gene expression on in vitro Bruch's membrane model", "assay_type": "cell-based, human", "settings": "AMD-derived RPE on nitrite-modified ECM, 10, 100, 1000 nM, 24 hours", "procedure": "General. iPSC-derived RPE were generated from AMD patients (2 atrophic; 1 exudative) and patients with no history of AMD (n=3). To test the therapeutic efficacy of elamipretide and compound of Formula IIa, cell viability was analyzed on nitrite-modified extracellular matrix (ECM), a typical modification of aged Bruch's membrane, for 24 hrs. DNA microarrays were used to elucidate gene expression in AMD-derived RPE cultured on nitrite-modified ECM.\nMicroarray analysis. iPSC-derived RPE cells from AMD donors (n=3; 2 atrophic with GA, 1 exudative) were treated with drug (elamipretide or compound of Formula IIa) as described below and cultured on an in vitro Bruch's membrane model for 24 hours.\n• AMD donors only (n=3 individual donors) • Cells treated with elamipretide (also referred to as “309” in the figures) at 10 nM, 100 nM and 1000 nM • Cells treated with compound of Formula IIa (also referred to as “146c” in the figures) at 10 nM, 100 nM, 1000 nM\nMicroarray studies using Affymetrix GeneChip Human Clariom™ S Assay were performed as described in Gong et al. (2020)."}, "[3]": {"experiment": "28-day SC study safety endpoints (clinical observations, ophthalmology)", "assay_type": "in vivo, cynomolgus monkey", "procedure": "Male and female cynomolgus monkeys were divided into four groups (Groups 1 to 4). Groups 1 and 4 consisted of five males and five females each and Groups 2 and 3 consisted of three males and three females each. Animals were dosed via SC injection once daily for 28 consecutive days. Group 1 animals received the control article, 0.9% sodium chloride injection, USP (saline). Group 2, 3, and 4 animals received the test article, compound of Formula IIa, at dose levels of 2, 5, and 15 mg/kg/day, respectively. Three males and three females from Groups 1 to 3, and three males and one female from Group 4 were necropsied on Day 29 (terminal necropsy). Two males and two females from Groups 1 and 4 were necropsied on Day 42 (recovery necropsy), after a 13-day treatment-free period. […] At termination, gross observations and organ weights were recorded, and eye/optic nerve tissue samples were collected for microscopic evaluation and biodistribution assays. […]\nBody weight. Body weights were measured twice during acclimation (including Day −1), then weekly during the in-life phase (Days 7, 14, 21, 28, 35, and 41) and on the day of corresponding necropsy (Day 29 or Day 42). […]"}}}
{"compound": "Cc1cc(O)cc(C)c1C[C@H](NC(=O)[C@H](N)CCCNC(=N)N)C(=O)N[C@@H](CCCCN)c1nc(Cc2ccccc2)no1.Cl.Cl.Cl", "note": "[Formula IIa, (R)-2-amino-N—((S)-1-(((S)-5-amino-1-(3-benzyl-1,2,4-oxadiazol-5-yl)pentyl)amino)-3-(4-hydroxy-2,6-dimethylphenyl)-1-oxopropan-2-yl)-5-guanidinopentanamide]", "values": [{"measurement": "accumulation in eye tissues (retina, conjunctiva, cornea, aqueous humor, optic nerve head) compared with elamipretide", "setting": "[1]", "result": "higher concentration"}, {"measurement": "concentration in the eye tissue examined compared with elamipretide (conjunctiva, cornea, aqueous humor, optical nerve head)", "setting": "[1]", "result": "higher"}, {"measurement": "concentration in plasma, elamipretide compared with compound of Formula IIa", "setting": "[1]; 1.5 mg/kg", "result": "roughly equivalent"}, {"measurement": "expression of complement regulatory genes including CFHR2", "setting": "[2]; FIG. 8S", "result": "increase expression"}, {"measurement": "expression of complement component genes (C1R, C3, C4A) increased by nitration of ECM", "setting": "[2]; FIGS. 8L-8P", "result": "reverse this trend"}, {"measurement": "expression of mitochondrial-related genes, such as CYP24A1 and GLS", "setting": "[2]; FIGS. 8W-8Z", "result": "altered the expression"}, {"measurement": "tolerability of dosing", "setting": "[3]; SC 15 mg/kg/day (Group 4), two females necropsied early on Days 25 and 27", "result": "not well tolerated"}, {"measurement": "ophthalmology examination findings", "setting": "[3]; SC 2, 5, 15 mg/kg/day, Day 24 (Week 4)", "result": "no compound of Formula IIa-related findings"}]}
